# Like-named read-outs stand apart in the source and are kept apart here.
# Experiments:
# [1] = system: vancomycin-resistant enterococci (VanB), ATCC 51299; assay: Minimum inhibitory concentration against VRE (VanB); assay type: cell-based; details: for MIC: Enterococcus, read-out: MIC, VRE (VanB)
# Source text: (§1) The chemistry described above enabled direct synthesis of eleven previously unknown analogs of 3. The minimum inhibitory concentrations (MICs) for the new analogs as antibacterial agents as determined.
# [2] = system: methicillin-resistant S. aureus, ATCC 43300; assay: Minimum inhibitory concentration against MRSA; assay type: cell-based; details: for MIC: Staphylococcus aureus, read-out: MIC, MRSA
# Source text: as §1
# [3] = system: vancomycin-susceptible enterococci, ATCC 29212; assay: Minimum inhibitory concentration against VSE; assay type: cell-based; details: for MIC: read-out: MIC, VSE
# Source text: as §1
# [4] = system: methicillin-susceptible S. aureus, ATCC 29213; assay: Minimum inhibitory concentration against MSSA; assay type: cell-based; details: for MIC: Staphylococcus aureus, read-out: MIC, MSSA
# Source text: as §1
# [5] = system: vancomycin-resistant enterococci (VanA), MMX 486; assay: Minimum inhibitory concentration against VRE (VanA); assay type: cell-based; details: for activity against VRE (VanA) strain, in words: compared with vancomycin and teicoplanin; for MIC: Enterococcus, VRE, read-out: MIC, VRE (VanA)
# Source text: as §1
# Staphylococcus aureus = details: cited from earlier work
# [6] = vancomycin-resistant enterococci, ATCC 51299
# [7] = methicillin-resistant S. aureus, ATCC 43300
# [8] = vancomycin-susceptible enterococci, ATCC 29212
# [9] = methicillin-susceptible S. aureus, ATCC 29213
# [10] = MMX 486, vancomycin and teicoplanin resistant
# [11] = compared with vancomycin and teicoplanin
Molecule,"MIC, VRE (VanB) [1, 6] [µg/mL]","MIC, MRSA [2, 7] [µg/mL]","MIC, VSE [3, 8] [µg/mL]","MIC, MSSA [4, 9] [µg/mL]","MIC, VRE (VanA) [5, 10] [µg/mL]","activity against VRE (VanA) strain, in words [5]",other results
CC(=O)N[C@H]1[C@H](O[C@@H]2c3ccc(c(Cl)c3)Oc3cc4cc(c3O[C@@H]3O[C@H](CO)[C@@H](O)[C@H](O)[C@H]3NC(=O)CCCCCCC(C)C)Oc3ccc(cc3-c3ccoc3)C[C@H]3NC(=O)[C@H](N)c5ccc(O)c(c5)Oc5cc(O)cc(c5)[C@H](NC3=O)C(=O)N[C@H]4C(=O)N[C@H]3C(=O)N[C@@H]2C(=O)N[C@H](C(=O)O)c2c(Br)c(O)cc(O[C@H]4O[C@H](CO)[C@@H](O)[C@H](O)[C@@H]4O)c2-c2cc3ccc2O)O[C@H](CO)[C@@H](O)[C@@H]1O [Compound 16],0.5,0.5,0.25,0.5,>64,,
CC(=O)N[C@H]1[C@H](O[C@@H]2c3ccc(c(Cl)c3)Oc3cc4cc(c3O[C@@H]3O[C@H](CO)[C@@H](O)[C@H](O)[C@H]3NC(=O)CCCCCCC(C)C)Oc3ccc(cc3-c3ccc(-c5ccccc5)cc3)C[C@H]3NC(=O)[C@H](N)c5ccc(O)c(c5)Oc5cc(O)cc(c5)[C@H](NC3=O)C(=O)N[C@H]4C(=O)N[C@H]3C(=O)N[C@@H]2C(=O)N[C@H](C(=O)O)c2c(Br)c(O)cc(O[C@H]4O[C@H](CO)[C@@H](O)[C@H](O)[C@@H]4O)c2-c2cc3ccc2O)O[C@H](CO)[C@@H](O)[C@@H]1O [Compound 17],0.5,2,1,4,32,,
CC(=O)N[C@H]1[C@H](O[C@@H]2c3ccc(c(Cl)c3)Oc3cc4cc(c3O[C@@H]3O[C@H](CO)[C@@H](O)[C@H](O)[C@H]3NC(=O)CCCCCCC(C)C)Oc3ccc(cc3-c3ccoc3)C[C@H]3NC(=O)[C@H](N)c5ccc(O)c(c5)Oc5cc(O)cc(c5)[C@H](NC3=O)C(=O)N[C@H]4C(=O)N[C@H]3C(=O)N[C@@H]2C(=O)N[C@H](C(=O)O)c2cc(O)cc(O[C@H]4O[C@H](CO)[C@@H](O)[C@H](O)[C@@H]4O)c2-c2cc3ccc2O)O[C@H](CO)[C@@H](O)[C@@H]1O [Compound 18],0.12,0.25,0.12,0.25,32,enhancement of activity,"activity against VRE (VanB) strain, in words [1, 11]: enhancement of activity"
CC(=O)N[C@H]1[C@H](O[C@@H]2c3ccc(c(Cl)c3)Oc3cc4cc(c3O[C@@H]3O[C@H](CO)[C@@H](O)[C@H](O)[C@H]3NC(=O)CCCCCCC(C)C)Oc3ccc(cc3-c3ccc(-c5ccccc5)cc3)C[C@H]3NC(=O)[C@H](N)c5ccc(O)c(c5)Oc5cc(O)cc(c5)[C@H](NC3=O)C(=O)N[C@H]4C(=O)N[C@H]3C(=O)N[C@@H]2C(=O)N[C@H](C(=O)O)c2cc(O)cc(O[C@H]4O[C@H](CO)[C@@H](O)[C@H](O)[C@@H]4O)c2-c2cc3ccc2O)O[C@H](CO)[C@@H](O)[C@@H]1O [Compound 19],0.25,4,0.5,8,8,significant activity,"potency against MRSA strain, in words [2, 11]: loss of potency; potency against MSSA strain, in words [4, 11]: loss of potency"
CCCCCC/C=C/c1cc2ccc1Oc1cc3cc(c1O[C@@H]1O[C@H](CO)[C@@H](O)[C@H](O)[C@H]1NC(=O)CCCCCCC(C)C)Oc1ccc(cc1Cl)[C@@H](O[C@@H]1O[C@H](CO)[C@@H](O)[C@H](O)[C@H]1NC(C)=O)[C@@H]1NC(=O)[C@H](NC(=O)[C@@H]3NC(=O)[C@H]3NC(=O)[C@@H](C2)NC(=O)[C@H](N)c2ccc(O)c(c2)Oc2cc(O)cc3c2)c2ccc(O)c(c2)-c2c(O[C@H]3O[C@H](CO)[C@@H](O)[C@H](O)[C@@H]3O)cc(O)cc2[C@@H](C(=O)O)NC1=O [Compound 20],0.25,4,0.5,8,1,quite high (significant) potency,
"CC(=O)NC[C@H]1CN(c2ccc(N3CCOCC3)c(F)c2)C(=O)O1 [Linezolid, reference compound]",,,,,,,"MIC [1, 6]: 2 µg/mL; MIC [2, 7]: 4 µg/mL; MIC [3, 8]: 2 µg/mL; MIC [4, 9]: 4 µg/mL; MIC [5, 10]: 2 µg/mL"
"CC(=O)N[C@H]1[C@H](O[C@@H]2c3ccc(c(Cl)c3)Oc3cc4cc(c3O[C@@H]3O[C@H](CO)[C@@H](O)[C@H](O)[C@H]3NC(=O)CCCCCCC(C)C)Oc3ccc(cc3Cl)C[C@H]3NC(=O)[C@H](N)c5ccc(O)c(c5)Oc5cc(O)cc(c5)[C@H](NC3=O)C(=O)N[C@H]4C(=O)N[C@H]3C(=O)N[C@@H]2C(=O)N[C@H](C(=O)O)c2cc(O)cc(O[C@H]4O[C@H](CO)[C@@H](O)[C@H](O)[C@@H]4O)c2-c2cc3ccc2O)O[C@H](CO)[C@@H](O)[C@@H]1O [Teicoplanin A2-2, reference compound]",0.25,0.5,0.25,0.5,>64,,
"CN[C@H](CC(C)C)C(=O)N[C@H]1C(=O)N[C@@H](CC(N)=O)C(=O)N[C@H]2C(=O)N[C@H]3C(=O)N[C@H](C(=O)N[C@H](C(=O)O)c4cc(O)cc(O)c4-c4cc3ccc4O)[C@H](O)c3ccc(c(Cl)c3)Oc3cc2cc(c3O[C@@H]2O[C@H](CO)[C@@H](O)[C@H](O)[C@H]2O[C@H]2C[C@](C)(N)[C@H](O)[C@H](C)O2)Oc2ccc(cc2Cl)[C@H]1O [Vancomycin, vancomycin, reference compound]",,,,,,,MIC [1]: 16 µg/mL; MIC [2]: 1 µg/mL; MIC [3]: 2 µg/mL; in vitro MIC against Staphylococcus aureus (Staphylococcus aureus): 0.25 to 10 µg/mL; MIC [4]: 0.5 µg/mL; MIC [5]: > 64 µg/mL
teicoplanin [reference compound],0.25,0.5,0.25,0.5,>64,,

# — patent publication US10294275B2, “Site-selective functionalization of glycopeptide antibiotics” (Yale University, priority 2012, dated 2019)
